# In PubChem BioAssay (NCI):
#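 Values below derive from 48-hour exposures of cells grown in 96-well plates, with endpoints linearly interpolated between the two concentrations bracketing the appropriate inhibition level. Here, GI50 denotes the concentration required for 50% inhibition of growth. At the TGI there is no net growth.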
# Tests used:
# Assay in all cases: NCI anticancer screen, dose series, 48 h
# 786-0 renal = test system: 786-0 renal
# A498 renal = test system: A498 renal
# HT29 colon = test system: HT29 colon
# KM12 colon = test system: KM12 colon
# LOX IMVI melanoma = test system: LOX IMVI melanoma
# PC-3 prostate = test system: PC-3 prostate
# SK-MEL-5 melanoma = test system: SK-MEL-5 melanoma
# U251 CNS = test system: U251 CNS
# UACC-257 melanoma = test system: UACC-257 melanoma
# UO-31 renal = test system: UO-31 renal
Structure (SMILES),GI50 (786-0 renal) [µM],TGI (786-0 renal) [µM],GI50 (A498 renal) [µM],TGI (A498 renal) [µM],GI50 (HT29 colon) [µM],TGI (HT29 colon) [µM],GI50 (KM12 colon) [µM],TGI (KM12 colon) [µM],GI50 (LOX IMVI melanoma) [µM],TGI (LOX IMVI melanoma) [µM],GI50 (PC-3 prostate) [µM],TGI (PC-3 prostate) [µM],GI50 (SK-MEL-5 melanoma) [µM],TGI (SK-MEL-5 melanoma) [µM],GI50 (U251 CNS) [µM],TGI (U251 CNS) [µM],GI50 (UACC-257 melanoma) [µM],TGI (UACC-257 melanoma) [µM],GI50 (UO-31 renal) [µM],TGI (UO-31 renal) [µM]
CCCCN1CCCC[C@@H]1C(=O)N[C@H](C(=O)N(C)[C@H](C[C@@H](OC(C)=O)c1nc(C(=O)NC2CCC(C(=O)OC)CC2)cs1)C(C)C)C(C)C (stereo not given in full),1.5,> 25,6.35,> 25,0.96,13.6,1.07,> 25,1.36,> 25,1.41,> 25,1.22,> 25,1.18,> 25,2.42,> 25,7.06,> 25
COc1ccc(C#Cc2ccc(=O)oc2-c2cc(OC)c(OC)c(OC)c2)cc1O,5.49,> 33.2,10.1,> 83.1,7.98,> 35.6,3.54,> 100,12.3,> 100,8.22,> 100,0.654,> 46.1,5.4,> 100,7.87,> 100,11.1,> 79.8
O=C1/C(=C/c2ccccc2)CN(C(=O)C(Cl)Cl)C/C1=C\c1ccccc1,1.38,2.82,1.48,3,0.295,1.06,0.267,0.845,0.139,0.353,0.297,1.08,0.698,1.94,0.325,1.24,1.42,3.13,1.29,2.62
BrC(Br)=C1C(=C(Br)Br)C(Br)C1Br (stereo not given),,0.882,,3.38,,1.49,,2.15,,1.03,,5.42,,2.04,,2.69,,5.3,,2.24
CC(=O)Nc1cc2cc(N)ccc2oc1=O,,> 100,,> 100,,> 100,,> 100,,> 100,,> 100,,> 100,,> 100,,> 100,,> 100
COC(=O)c1ccc2c(c1)C(=O)c1c-2n(CCCCl)c(=O)c2cc([N+](=O)[O-])ccc12,63.5,> 100,> 100,> 100,76.8,> 100,> 100,> 100,40.9,> 100,> 100,> 100,85.7,> 100,53.1,> 100,> 100,> 100,49.1,> 100
CSC(=NC#N)S/C=C/C(=O)c1ccccc1,33.7,> 100,61,> 100,37.3,> 100,> 100,> 100,31,> 100,33.2,> 100,45.9,> 100,40.3,> 100,45.4,> 100,28.3,> 100
C=C(CN1CCN(c2ccc(C(F)(F)F)cc2)CC1)c1ccc(C(=O)Nc2ccccc2N)cc1,2.85,> 100,7.67,61.5,> 75.7,> 100,7.64,> 100,11.1,> 100,1.29,> 65.7,4.43,> 100,6.25,31,2.39,> 100,0.967,> 73.1
CC/C=C\C[C@H](F)C/C=C1/C(=O)C=C[C@@H]1C/C=C\CCCC(=O)OC,2.56,9.55,9.41,17.2,1.69,4.67,1.26,3.43,0.854,1.75,1.74,5.7,1.29,3.13,1.86,6.57,2.75,10.1,2.13,9.72
C=C1CC2(CC(c3ccccc3Cl)OC(c3ccccc3Cl)C2)OC1=O (stereo not given),,4.66,,21.3,,6.68,,7.56,,2.72,,6.84,,10.4,,15.6,,5.14,,11.7
Cc1c(-c2ccc(C3CCCCC3)cc2)nc2ccc(F)cc2c1C(=O)O,0.235,> 100,> 36.6,> 100,0.311,> 100,0.402,> 100,0.0512,> 100,0.0797,> 100,0.0799,> 100,0.0588,> 100,4.79,> 100,0.721,> 100
CCCc1n(Cc2ccc3ccccc3c2)cc[n+]1Cc1ccc2ccccc2c1,1.52,2.91,0.938,3.78,0.513,1.89,1.01,2.38,0.926,2.19,1.17,3.49,0.485,1.62,0.765,2.11,0.466,1.76,2.56,11.6
CN(C)CCCN(CCC1CCCCC1)CCC1CCCCC1,2.74,9.16,2.87,9.61,0.73,6.81,1.78,3.44,1.47,2.91,4.47,17.9,0.545,2.14,1.67,3.81,0.77,2.82,1.38,4.24
CO[C@H]1C=CO[C@@]2(C)Oc3c(C)c(O)c4c(O)c(c(CN5CCN(C)CC5)c(O)c4c3C2=O)NC(=O)/C(C)=C\C=C[C@H](C)[C@H](O)C(C)[C@@H](O)C(C)[C@H](OC(C)=O)[C@@H]1C (stereo not given in full),,> 100,,> 100,,> 100,,> 100,,> 71.9,,> 100,,56.4,,> 100,,> 72.8,,> 94.4
O=C(/C=C/c1ccc(Cl)cc1)c1ccccc(=O)c1O,,32.1,,36,,10.8,,6.45,,13,,20,,4.93,,> 100,,14.6,,> 100
O=c1oc2ccc(I)cc2c(=O)n1-c1ccc(F)cc1F,3.03,9.67,1.19,2.92,3.4,15.4,2.51,6.8,2.51,10.9,2.24,6.94,1.53,3.03,2.64,19,2.01,6.12,1.48,5.71
CC(=O)O[C@H]([C@H](OC(C)=O)[C@H](C)OC(C)=O)[C@@H](/C=C/[C@@H]1CC=CC(=O)O1)OC(C)=O,90.1,> 100,50.2,> 100,72.1,> 100,> 100,> 100,57.1,> 100,13.9,> 100,44.5,> 100,> 100,> 100,> 100,> 100,20.1,39.9
COC1C(O)CC(OC2CC(OC3CC(O[C@@H]4C(=O)c5c(cc6cc(OC7CC(OC8CC(O)C(O)C(C)O8)C(O)C(C)O7)c(C)c(O)c6c5O)CC4[C@H](OC)C(=O)O)OC(C)C3O)OC(C)C2O)OC1C (stereo not given in full),2.1,> 33.3,0.725,2.6,2.55,17.9,1.89,> 33.3,0.983,5.07,2.4,> 33.3,1.34,8.74,1.53,> 33.3,1.94,13.5,1.11,> 33.3
COc1ccc(C=Nc2c(C(=O)Nc3cccc(Cl)c3C)sc3nc(C)c(C(=O)/C=C/c4ccc(OC)cc4)cc23)cc1,0.656,> 30,0.196,2.49,0.306,> 50,0.894,> 43.9,0.666,> 50,0.281,> 50,0.856,> 50,1.56,18.4,2.88,> 50,2.04,> 50
O=c1[nH]c2ccccc2c2nc3ccccc3n12,,> 100,,> 100,,> 100,,> 100,,> 100,,> 100,,> 100,,> 100,,> 100,,> 100
O=C1C(=C(C(F)(F)Cl)C(F)(F)Cl)C2CCC1C2 (stereo not given),,3.64,,> 10,,5.57,,> 8.65,,2.89,,5.48,,3.11,,> 10,,4.2,,> 6.47
CC(=O)OC1CCC2(C)C(CCC3C2CC(=O)C2(C)C3CC(N3CC3)C2C(C)=O)C1 (stereo not given),,64.4,,53.9,,> 100,,43.4,,29.3,,30,,32.3,,37.8,,32.5,,46.4
